Consider 25 compounds from patent US20250171437A1 (Agios Pharmaceuticals,Inc., priority 2022, published 2025).

Where only a bound is given, the exact number is not on record here.

This experiment addresses T1, human PAH with the R408W mutation (A375 R408W cells) (Homo sapiens, UniProt P00439, R408W).
T1 construct: expressed in transfected cells
T1 sequence (P00439 1-452 R408W): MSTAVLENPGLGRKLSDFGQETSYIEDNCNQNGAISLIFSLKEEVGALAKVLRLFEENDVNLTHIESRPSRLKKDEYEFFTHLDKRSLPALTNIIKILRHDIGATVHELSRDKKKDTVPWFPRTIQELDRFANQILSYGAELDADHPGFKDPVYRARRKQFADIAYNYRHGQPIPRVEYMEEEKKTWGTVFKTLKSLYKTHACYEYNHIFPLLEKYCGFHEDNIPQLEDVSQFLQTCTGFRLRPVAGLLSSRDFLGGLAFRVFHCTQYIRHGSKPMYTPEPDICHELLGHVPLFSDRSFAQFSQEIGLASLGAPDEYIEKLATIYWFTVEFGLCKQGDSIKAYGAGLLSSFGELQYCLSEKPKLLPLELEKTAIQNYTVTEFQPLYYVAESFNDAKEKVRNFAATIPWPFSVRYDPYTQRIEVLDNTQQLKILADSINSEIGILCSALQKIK
In words: Cell Based Phenylalanine Flux Assay. The conditions noted are these: A375 R408W cells; 24 hrs with compound, then 20 μM sepiapterin and 800 μM 13C9,15N-Phenylalanine for 4 hours; 13C-Tyrosine by LC-MS; average where tested multiple times. In short, it runs like this:
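Stable R408W PAH A375 cells: 24 h compound pretreatment in duplicate, then 4 h with 800 μM isotope-labelled Phe and 20 μM sepiapterin. Labelled Tyr output by LC-MS; AC50 averaged where repeated.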
On to `CC(C)(O)c1nc(Cl)c(C(=O)N2CCc3[nH]cnc3[C@H]2c2nc3cc(F)ccc3o2)o1` [Example 129, (S)-(4-chloro-2-(2-hydroxypropan-2-yl)oxazol-5-yl)(4-(5-fluorobenzo[d]oxazol-2-yl)-6,7-dihydro-1H-imidazo[4,5-c]pyridin-5(4H)-yl)methanone], for which the concentration at half-maximal activity (AC50) fell in the range of 0.5 to 1 µM. The same measure for `CC(C)(O)c1nc(Cl)c(C(=O)N2CCc3[nH]cnc3[C@@H]2c2nc3cc(F)ccc3o2)o1` [Example 130, (R)-(4-chloro-2-(2-hydroxypropan-2-yl)oxazol-5-yl)(4-(5-fluorobenzo[d]oxazol-2-yl)-6,7-dihydro-1H-imidazo[4,5-c]pyridin-5(4H)-yl)methanone]: not below 5 µM; for `Cn1nccc1-c1nnc(C(=O)N2CCc3[nH]cnc3[C@H]2c2nc3cc(F)ccc3o2)o1` [Example 131, (S)-(4-(5-fluorobenzo[d]oxazol-2-yl)-6,7-dihydro-1H-imidazo[4,5-c]pyridin-5(4H)-yl)(5-(1-methyl-1H-pyrazol-5-yl)-1,3,4-oxadiazol-2-yl)methanone]: 0.5 to 1 µM; for `Cn1nccc1-c1nnc(C(=O)N2CCc3[nH]cnc3[C@@H]2c2nc3cc(F)ccc3o2)o1` [Example 132, (R)-(4-(5-fluorobenzo[d]oxazol-2-yl)-6,7-dihydro-1H-imidazo[4,5-c]pyridin-5(4H)-yl)(5-(1-methyl-1H-pyrazol-5-yl)-1,3,4-oxadiazol-2-yl)methanone]: 1 to 5 µM.

For `O=C(c1cnn2cc(N3CCN(C4CC4)CC3)ccc12)N1CCc2[nH]cnc2[C@H]1c1nc2cc(F)ccc2o1` [Example 133, (S)-(6-(4-cyclopropylpiperazin-1-yl)pyrazolo[1,5-a]pyridin-3-yl)(4-(5-fluorobenzo[d]oxazol-2-yl)-6,7-dihydro-1H-imidazo[4,5-c]pyridin-5(4H)-yl)methanone], the AC50 is 0.5 to 1 µM. The same measure for `O=C(c1cnn2cc(N3CCN(C4CC4)CC3)ccc12)N1CCc2[nH]cnc2[C@@H]1c1nc2cc(F)ccc2o1` [Example 134, (R)-(6-(4-cyclopropylpiperazin-1-yl)pyrazolo[1,5-a]pyridin-3-yl)(4-(5-fluorobenzo[d]oxazol-2-yl)-6,7-dihydro-1H-imidazo[4,5-c]pyridin-5(4H)-yl)methanone]: not below 5 µM. For `Cc1nc([C@@H](C)O)oc1C(=O)N1CCc2[nH]cnc2[C@H]1c1nc2cc(F)ccc2o1` [Example 135, ((S)-4-(5-fluorobenzo[d]oxazol-2-yl)-6,7-dihydro-1H-imidazo[4,5-c]pyridin-5(4H)-yl)(2-((R)-1-hydroxyethyl)-4-methyloxazol-5-yl)methanone], the AC50 lay in the range of 1 to 5 µM. Consider `Cc1nc([C@@H](C)O)oc1C(=O)N1CCc2[nH]cnc2[C@@H]1c1nc2cc(F)ccc2o1` [Example 136, ((R)-4-(5-fluorobenzo[d]oxazol-2-yl)-6,7-dihydro-1H-imidazo[4,5-c]pyridin-5(4H)-yl)(2-((R)-1-hydroxyethyl)-4-methyloxazol-5-yl)methanone], for which the AC50 is not below 5 µM.

Take `Cc1ccc2oc([C@@H]3c4nc[nH]c4CCN3C(=O)c3ocnc3C(F)F)nc2c1` [Example 137, (S)-(4-(difluoromethyl)oxazol-5-yl)(4-(5-methylbenzo[d]oxazol-2-yl)-6,7-dihydro-1H-imidazo[4,5-c]pyridin-5(4H)-yl)methanone]: the AC50 is not above 0.5 µM. For `Cc1ccc2oc([C@H]3c4nc[nH]c4CCN3C(=O)c3ocnc3C(F)F)nc2c1` [Example 138, (R)-(4-(difluoromethyl)oxazol-5-yl)(4-(5-methylbenzo[d]oxazol-2-yl)-6,7-dihydro-1H-imidazo[4,5-c]pyridin-5(4H)-yl)methanone], the AC50 was not above 0.5 µM. Consider `CN1CCN(c2ccc3c(C(=O)N4CCc5[nH]cnc5[C@H]4c4nc5cc(F)ccc5o4)cnn3c2)CC1(C)C` [Example 139, (S)-(4-(5-fluorobenzo[d]oxazol-2-yl)-6,7-dihydro-1H-imidazo[4,5-c]pyridin-5(4H)-yl)(6-(3,3,4-trimethylpiperazin-1-yl)pyrazolo[1,5-a]pyridin-3-yl)methanone], for which the half-maximal activity concentration (AC50) was in the range of 0.5 to 1 µM. Next, `CN1CCN(c2ccc3c(C(=O)N4CCc5[nH]cnc5[C@@H]4c4nc5cc(F)ccc5o4)cnn3c2)CC1(C)C` [Example 140, (R)-(4-(5-fluorobenzo[d]oxazol-2-yl)-6,7-dihydro-1H-imidazo[4,5-c]pyridin-5(4H)-yl)(6-(3,3,4-trimethylpiperazin-1-yl)pyrazolo[1,5-a]pyridin-3-yl)methanone]: not below 5 µM. Regarding `O=C(c1oc(C2(O)CC2)nc1C(F)F)N1CCc2[nH]cnc2[C@H]1c1nc2cc(F)ccc2o1` [Example 141, (S)-(4-(difluoromethyl)-2-(1-hydroxycyclopropyl)oxazol-5-yl)(4-(5-fluorobenzo[d]oxazol-2-yl)-6,7-dihydro-1H-imidazo[4,5-c]pyridin-5(4H)-yl)methanone], the AC50 fell in the range of 0.5 to 1 µM. `O=C(c1oc(C2(O)CC2)nc1C(F)F)N1CCc2[nH]cnc2[C@@H]1c1nc2cc(F)ccc2o1` [Example 142, (R)-(4-(difluoromethyl)-2-(1-hydroxycyclopropyl)oxazol-5-yl)(4-(5-fluorobenzo[d]oxazol-2-yl)-6,7-dihydro-1H-imidazo[4,5-c]pyridin-5(4H)-yl)methanone]: the AC50 was in the range of 1 to 5 µM. The same measure for `O=C(c1ocnc1C(F)(F)F)N1CCc2[nH]cnc2[C@H]1c1nc2ccc(Br)cc2o1` [Example 143, (S)-(4-(6-bromobenzo[d]oxazol-2-yl)-6,7-dihydro-1H-imidazo[4,5-c]pyridin-5(4H)-yl)(4-(trifluoromethyl)oxazol-5-yl)methanone]: not above 0.5 µM; for `O=C(c1ocnc1C(F)(F)F)N1CCc2[nH]cnc2[C@@H]1c1nc2ccc(Br)cc2o1` [Example 144, (R)-(4-(6-bromobenzo[d]oxazol-2-yl)-6,7-dihydro-1H-imidazo[4,5-c]pyridin-5(4H)-yl)(4-(trifluoromethyl)oxazol-5-yl)methanone]: not above 0.5 µM; for `O=C(c1ocnc1C(F)F)N1CCc2[nH]cnc2[C@H]1c1nc2ccc(Br)cc2o1` [Example 145, (S)-(4-(6-bromobenzo[d]oxazol-2-yl)-6,7-dihydro-1H-imidazo[4,5-c]pyridin-5(4H)-yl)(4-(difluoromethyl)oxazol-5-yl)methanone]: not above 0.5 µM. The same measure for `O=C(c1ocnc1C(F)F)N1CCc2[nH]cnc2[C@@H]1c1nc2ccc(Br)cc2o1` [Example 146, (R)-(4-(6-bromobenzo[d]oxazol-2-yl)-6,7-dihydro-1H-imidazo[4,5-c]pyridin-5(4H)-yl)(4-(difluoromethyl)oxazol-5-yl)methanone]: 0.5 to 1 µM; for `O=C(c1ocnc1C(F)(F)F)N1CCc2[nH]cnc2[C@H]1c1nc2cc(Br)ccc2o1` [Example 147, (S)-(4-(5-bromobenzo[d]oxazol-2-yl)-6,7-dihydro-1H-imidazo[4,5-c]pyridin-5(4H)-yl)(4-(trifluoromethyl)oxazol-5-yl)methanone]: not above 0.5 µM. `O=C(c1ocnc1C(F)(F)F)N1CCc2[nH]cnc2[C@@H]1c1nc2cc(Br)ccc2o1` [Example 148, (R)-(4-(5-bromobenzo[d]oxazol-2-yl)-6,7-dihydro-1H-imidazo[4,5-c]pyridin-5(4H)-yl)(4-(trifluoromethyl)oxazol-5-yl)methanone]: the AC50 is not above 0.5 µM. For the compound `O=C(c1ocnc1C(F)F)N1CCc2[nH]cnc2[C@H]1c1nc2cc(Br)ccc2o1` [Example 149, (S)-(4-(5-bromobenzo[d]oxazol-2-yl)-6,7-dihydro-1H-imidazo[4,5-c]pyridin-5(4H)-yl)(4-(difluoromethyl)oxazol-5-yl)methanone], the AC50 was not above 0.5 µM. The same measure for `O=C(c1ocnc1C(F)F)N1CCc2[nH]cnc2[C@@H]1c1nc2cc(Br)ccc2o1` [Example 150, (R)-(4-(5-bromobenzo[d]oxazol-2-yl)-6,7-dihydro-1H-imidazo[4,5-c]pyridin-5(4H)-yl)(4-(difluoromethyl)oxazol-5-yl)methanone]: not above 0.5 µM; for `C[C@@H](O)c1nc(C(F)F)c(C(=O)N2CCc3[nH]cnc3[C@H]2c2nc3cc(F)ccc3o2)o1` [Example 151, (4-(difluoromethyl)-2-((R)-1-hydroxyethyl)oxazol-5-yl)((S)-4-(5-fluorobenzo[d]oxazol-2-yl)-6,7-dihydro-1H-imidazo[4,5-c]pyridin-5(4H)-yl)methanone]: not above 0.5 µM; for `C[C@@H](O)c1nc(C(F)F)c(C(=O)N2CCc3[nH]cnc3[C@@H]2c2nc3cc(F)ccc3o2)o1` [Example 152, (4-(difluoromethyl)-2-((R)-1-hydroxyethyl)oxazol-5-yl)((R)-4-(5-fluorobenzo[d]oxazol-2-yl)-6,7-dihydro-1H-imidazo[4,5-c]pyridin-5(4H)-yl)methanone]: 1 to 5 µM. Take `CC(F)(F)c1ncoc1C(=O)N1CCc2[nH]cnc2[C@H]1c1nc2cc(F)ccc2o1` [Example 153, (S)-(4-(1,1-difluoroethyl)oxazol-5-yl)(4-(5-fluorobenzo[d]oxazol-2-yl)-6,7-dihydro-1H-imidazo[4,5-c]pyridin-5(4H)-yl)methanone]: the AC50 lay in the range of 0.5 to 1 µM.

A word on the AC50: it is the concentration at which the activity in the assay is half-maximal.
